These results are taken from PMC2099433, “The binding site for neohesperidin dihydrochalcone at the human sweet taste receptor” (BMC Structural Biology, 2007).

For test [1], the system named is rat Tas1r3 with heptahelical domain of human TAS1R3, coexpressed with rat Tas1r2. The experiment in a line: Calcium response, chimeric receptor. It counts as cell-based. The following applies: 1 mM NHDC. The source says:
In order to elucidate the putative binding site for NHDC, we cotransfected mixtures of plasmid DNAs for the rat and human TAS1R2 and TAS1R3 receptor subunits in HEK293T cells stably expressing the chimeric G-protein G16Gust44 and measured cellular calcium responses by fluorometry following bath application of various sweet tasting compounds. […].
Figure 1 Chemical structure and calcium responses elicited by neohesperidin dihydrochalcone. (A) Structure of neohesperidin dihydrochalcone. Numbers denote carbon atom positions. (B) Representative calcium traces elicited upon stimulation with different concentrations of neohesperidin dihydrochalcone (NHDC) in HEK293T-G16Gust44 cells cotransfected with DNA for hTAS1R2/hTAS1R3. […]
The cDNAs for TAS1Rs tagged at the C-terminus with the herpes simplex virus glycoprotein D (HSV) were transiently transfected into HEK293T cells stably expressing the chimeric G-protein subunit G16Gust44 [44] using Lipofectamine 2000 (Invitrogen, Carlsbad, CA) according to the manufacturer's protocol. […] We monitored calcium mobilization following receptor stimulation with sweet tastants by an automated fluorometric imaging plate reader (FLIPR, Molecular Devices, Sunnyvale, CA). […] The obtained calcium signals were corrected for the response of mock transfected cells and normalized to the fluorescence of cells prior to the application of the stimulus using ΔF/F = (F-F0)/F0. […]

In test [2] the target is T1, hTAS1R2 + hTAS1R3 L782A^6.55 (Homo sapiens, UniProt Q7RTX0+Q8TE23, L782A).
T1 construct: expressed in transfected cells; host or cells: HEK293T cells stably expressing G16Gust44
T1 sequence (Q8TE23 20-839): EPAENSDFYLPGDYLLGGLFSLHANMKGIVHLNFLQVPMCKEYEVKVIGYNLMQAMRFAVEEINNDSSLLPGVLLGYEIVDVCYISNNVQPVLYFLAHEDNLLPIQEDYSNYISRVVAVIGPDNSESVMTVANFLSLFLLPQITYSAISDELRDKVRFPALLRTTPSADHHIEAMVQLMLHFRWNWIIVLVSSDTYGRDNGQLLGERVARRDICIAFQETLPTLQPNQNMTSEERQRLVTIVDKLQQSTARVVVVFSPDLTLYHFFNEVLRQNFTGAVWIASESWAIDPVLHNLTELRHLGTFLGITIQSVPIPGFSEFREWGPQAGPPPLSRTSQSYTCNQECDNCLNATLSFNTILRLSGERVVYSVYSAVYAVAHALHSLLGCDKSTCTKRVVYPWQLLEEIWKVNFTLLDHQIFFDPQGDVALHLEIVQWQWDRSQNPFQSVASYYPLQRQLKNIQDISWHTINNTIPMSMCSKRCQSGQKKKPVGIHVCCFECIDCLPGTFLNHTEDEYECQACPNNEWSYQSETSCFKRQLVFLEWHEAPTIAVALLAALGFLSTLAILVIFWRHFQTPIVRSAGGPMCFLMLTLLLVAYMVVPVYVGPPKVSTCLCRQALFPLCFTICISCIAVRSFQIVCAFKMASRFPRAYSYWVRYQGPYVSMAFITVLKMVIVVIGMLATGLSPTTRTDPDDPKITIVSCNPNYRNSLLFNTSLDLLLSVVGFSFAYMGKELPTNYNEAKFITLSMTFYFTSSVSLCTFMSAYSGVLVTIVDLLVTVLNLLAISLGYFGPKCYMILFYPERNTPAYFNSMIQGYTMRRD
T1 sequence (Q7RTX0 21-852 L782A): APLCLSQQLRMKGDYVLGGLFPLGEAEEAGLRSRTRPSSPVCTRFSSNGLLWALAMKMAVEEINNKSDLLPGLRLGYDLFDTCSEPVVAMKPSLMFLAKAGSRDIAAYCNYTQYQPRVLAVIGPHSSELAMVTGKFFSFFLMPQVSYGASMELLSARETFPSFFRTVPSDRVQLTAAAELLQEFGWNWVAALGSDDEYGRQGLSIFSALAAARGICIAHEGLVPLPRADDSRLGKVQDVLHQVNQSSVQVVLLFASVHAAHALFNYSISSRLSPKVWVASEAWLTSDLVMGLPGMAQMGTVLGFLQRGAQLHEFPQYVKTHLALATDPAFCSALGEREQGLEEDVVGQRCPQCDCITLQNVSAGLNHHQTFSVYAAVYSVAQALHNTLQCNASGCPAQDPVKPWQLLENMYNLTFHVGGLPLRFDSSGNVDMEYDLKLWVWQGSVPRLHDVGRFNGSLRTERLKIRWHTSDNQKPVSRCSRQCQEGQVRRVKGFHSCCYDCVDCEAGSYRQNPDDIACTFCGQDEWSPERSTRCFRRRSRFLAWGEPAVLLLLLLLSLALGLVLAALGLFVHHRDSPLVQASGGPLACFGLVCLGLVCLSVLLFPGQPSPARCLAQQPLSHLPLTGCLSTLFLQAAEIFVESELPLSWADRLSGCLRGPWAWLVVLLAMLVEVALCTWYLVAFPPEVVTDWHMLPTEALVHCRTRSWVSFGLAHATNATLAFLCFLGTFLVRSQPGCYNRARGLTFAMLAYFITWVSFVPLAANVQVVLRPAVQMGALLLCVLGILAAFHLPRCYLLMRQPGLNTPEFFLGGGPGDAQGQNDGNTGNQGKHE
Details: method as in PMID 15668251. As to conditions: mutation L782A^6.55; cited from earlier work.

On to `COc1ccc(CCC(=O)c2c(O)cc(O[C@@H]3O[C@H](CO)[C@@H](O)[C@H](O)[C@H]3O[C@@H]3O[C@@H](C)[C@H](O)[C@@H](O)[C@H]3O)cc2O)cc1O` [NHDC, neohesperidin dihydrochalcone], for which the calcium response entry in test [1] is listed as “sensitive for NHDC”.

With `O=S(=O)(O)NC1CCCCC1` [cyclamate], the receptor activation entry in test [2] was “abolished activation”.
